{"source": "patent US11839679B2", "about": "“Gamma-diketones for treatment and prevention of aging skin and wrinkles” (BioSplice Therapeutics, Inc., priority 2014, dated 2023)", "tested_on": "fine lines, wrinkles in the outer canthus of the eyes (crow's feet area)", "experiment": "Roughness reduction [SEr] via Visioscan, Example 1", "format": "in vivo, human", "set-up": "Roughness [SEr] via Visioscan / Roughness [SEr] via Visioscan, Mean: scale not given here", "description": "Three groups of women were recruited to evaluate and compare the efficacy of three anti-aging test products (targeting the periorbital eye area) intended to reduce the appearance of fine lines, wrinkles in the outer canthus of the eyes (crow's feet area) over a 12 week period. Wrinkle assessment was conducted instrumentally using a Visioscan image analysis system. Effectiveness of the test product was evaluated using panelist self-assessment via questionnaire responses comprised of 3-4 questions (Q1, Q2, Q3 & Q4). Each stage in the progression of treatments was photographically documented using a High Resolution Scientifically Matched Photography technique. Image analysis was utilized to quantify changes in fine lines and crow's feet condition observed in the Scientifically Matched Photographs.\nSubject Selection: • Number: Six subjects (two per group) to complete the study. • Sex: Females • Race: Caucasian/Asian/Hispanic • Age Range: 40 through 60 years old\nTest samples: • Topical 0.15% of Compound #222 in Oil (a 50/50 mixture of • Propylene Glycol Dicaprylate/Dicaprate and Caprylic/Capric Triglyceride) (Cohort 1) • Topical 0.15% of Compound #222 in PEG400 (Cohort 2) • Topical 0.05% of Compound #222 in PEG400 (Cohort 3)\nPrior to baseline measurements being taken, areas of involvement were marked on the facial surface using a standard template, to ensure that instruments were repositioned in the same location at each visit. The biophysical measurements (Surface Evaluation of Living Skin via Visioscan) were conducted by a trained technician. Pre-treatment High Resolution Scientifically Matched Photographs were taken.\n[…] After acclimating to ambient conditions, High Resolution Scientifically Matched Photographs were be taken and biophysical measurements (Surface Evaluation of Living Skin via Visioscan) were repeated using the standard template to identify test sites on the face. In addition (during the acclimation period) all participants were be asked to fill out a self-assessment questionnaire.\nSurface Evaluation of Living Skin Visioscan: The Visioscan (Courage and Khazaka) took a direct image of the living skin using a measuring head containing a CCD-camera and two metal halogen lamps positioned opposite each other in order to ensure even illumination of the measuring field on the skin (Skin Pharmacol Appl Skin Physiol (1999), 12(1-2), 1-11 and Cosmetic & Toiletries magazine (2009), 124(6), 51-54). The grey level distribution of the pixels in the image correspond to different phenomena (white pixels represent desquamation on the skin, dark pixels represent lines and wrinkles). The software with the Visioscan automatically calculates skin smoothness, skin roughness, scaliness and wrinkle parameters. […]\nThe source data was Visioscan and PhotoGrammetrix Image Analysis readings along with subjective assessments, which were totaled and reported as average scores. Photographs were placed side by side as to compare the photographs of before and after application of the test product in the eye area. […] The data obtained via Visioscan and from PhotoGrammetrix Image Analysis was quoted as % differences from baseline at each of the previously described time points. A paired t-test analysis was conducted in order to compare the results of post test product application measurements to baseline measurements where applicable. Statistical significance was established if p≤(α=0.05) was calculated.", "data": [{"smiles": "O=C(CCC(=O)c1ccc2c(c1)OCO2)c1ccccc1", "note": "[#222]", "values": [{"measurement": "Roughness [SEr] via Visioscan, Mean", "setting": "Day 7, Topical 0.05% in PEG (Cohort 3)", "result": 1.64}, {"measurement": "Roughness [SEr] via Visioscan, Mean", "setting": "Day 7, Topical 0.15% in Oil (Cohort 1)", "result": 1.97}, {"measurement": "Roughness [SEr] via Visioscan, Mean", "setting": "Day 7, Topical 0.15% in PEG (Cohort 2)", "result": 1.67}, {"measurement": "Roughness [SEr] via Visioscan, % Difference of Mean", "setting": "Day 7 vs Baseline, Topical 0.05% in PEG (Cohort 3)", "result": "−20.24", "unit": "%"}, {"measurement": "Roughness [SEr] via Visioscan, % Difference of Mean", "setting": "Day 7 vs Baseline, Topical 0.15% in Oil (Cohort 1)", "result": "−10.36", "unit": "%"}, {"measurement": "Roughness [SEr] via Visioscan, % Difference of Mean", "setting": "Day 7 vs Baseline, Topical 0.15% in PEG (Cohort 2)", "result": "−10.19", "unit": "%"}, {"measurement": "Roughness [SEr] via Visioscan, Mean", "setting": "Day 14, Topical 0.05% in PEG (Cohort 3)", "result": 1.51}, {"measurement": "Roughness [SEr] via Visioscan, Mean", "setting": "Day 14, Topical 0.15% in Oil (Cohort 1)", "result": 1.77}, {"measurement": "Roughness [SEr] via Visioscan, Mean", "setting": "Day 14, Topical 0.15% in PEG (Cohort 2)", "result": 1.62}, {"measurement": "Roughness [SEr] via Visioscan, % Difference of Mean", "setting": "Day 14 vs Baseline, Topical 0.05% in PEG (Cohort 3)", "result": "−26.59", "unit": "%"}, {"measurement": "Roughness [SEr] via Visioscan, % Difference of Mean", "setting": "Day 14 vs Baseline, Topical 0.15% in Oil (Cohort 1)", "result": "−19.36", "unit": "%"}, {"measurement": "Roughness [SEr] via Visioscan, % Difference of Mean", "setting": "Day 14 vs Baseline, Topical 0.15% in PEG (Cohort 2)", "result": "−12.53", "unit": "%"}, {"measurement": "Roughness [SEr] via Visioscan", "setting": "Subject #1, Day 7, Topical 0.15% in Oil (Cohort 1)", "result": 2.46}, {"measurement": "Roughness [SEr] via Visioscan, Individual % Difference", "setting": "Subject #1, Day 7 vs Baseline, Topical 0.15% in Oil (Cohort 1)", "result": "−1.60", "unit": "%"}, {"measurement": "Roughness [SEr] via Visioscan", "setting": "Subject #1, Day 14, Topical 0.15% in Oil (Cohort 1)", "result": 2.25}, {"measurement": "Roughness [SEr] via Visioscan, Individual % Difference", "setting": "Subject #1, Day 14 vs Baseline, Topical 0.15% in Oil (Cohort 1)", "result": "−9.82", "unit": "%"}, {"measurement": "Roughness [SEr] via Visioscan", "setting": "Subject #2, Day 7, Topical 0.15% in Oil (Cohort 1)", "result": 1.48}, {"measurement": "Roughness [SEr] via Visioscan, Individual % Difference", "setting": "Subject #2, Day 7 vs Baseline, Topical 0.15% in Oil (Cohort 1)", "result": "−21.90", "unit": "%"}, {"measurement": "Roughness [SEr] via Visioscan", "setting": "Subject #2, Day 14, Topical 0.15% in Oil (Cohort 1)", "result": 1.29}, {"measurement": "Roughness [SEr] via Visioscan, Individual % Difference", "setting": "Subject #2, Day 14 vs Baseline, Topical 0.15% in Oil (Cohort 1)", "result": "−31.93", "unit": "%"}, {"measurement": "Roughness [SEr] via Visioscan", "setting": "Subject #3, Day 7, Topical 0.15% in PEG (Cohort 2)", "result": 1.95}, {"measurement": "Roughness [SEr] via Visioscan, Individual % Difference", "setting": "Subject #3, Day 7 vs Baseline, Topical 0.15% in PEG (Cohort 2)", "result": "−11.79", "unit": "%"}, {"measurement": "Roughness [SEr] via Visioscan", "setting": "Subject #3, Day 14, Topical 0.15% in PEG (Cohort 2)", "result": 1.90}, {"measurement": "Roughness [SEr] via Visioscan, Individual % Difference", "setting": "Subject #3, Day 14 vs Baseline, Topical 0.15% in PEG (Cohort 2)", "result": "−13.83", "unit": "%"}, {"measurement": "Roughness [SEr] via Visioscan", "setting": "Subject #4, Day 7, Topical 0.15% in PEG (Cohort 2)", "result": 1.39}, {"measurement": "Roughness [SEr] via Visioscan, Individual % Difference", "setting": "Subject #4, Day 7 vs Baseline, Topical 0.15% in PEG (Cohort 2)", "result": "−7.84", "unit": "%"}, {"measurement": "Roughness [SEr] via Visioscan", "setting": "Subject #4, Day 14, Topical 0.15% in PEG (Cohort 2)", "result": 1.35}, {"measurement": "Roughness [SEr] via Visioscan, Individual % Difference", "setting": "Subject #4, Day 14 vs Baseline, Topical 0.15% in PEG (Cohort 2)", "result": "−10.63", "unit": "%"}, {"measurement": "Roughness [SEr] via Visioscan", "setting": "Subject #5, Day 7, Topical 0.05% in PEG (Cohort 3)", "result": 1.83}, {"measurement": "Roughness [SEr] via Visioscan, Individual % Difference", "setting": "Subject #5, Day 7 vs Baseline, Topical 0.05% in PEG (Cohort 3)", "result": "−29.07", "unit": "%"}, {"measurement": "Roughness [SEr] via Visioscan", "setting": "Subject #5, Day 14, Topical 0.05% in PEG (Cohort 3)", "result": 1.77}, {"measurement": "Roughness [SEr] via Visioscan, Individual % Difference", "setting": "Subject #5, Day 14 vs Baseline, Topical 0.05% in PEG (Cohort 3)", "result": "−31.40", "unit": "%"}, {"measurement": "Roughness [SEr] via Visioscan", "setting": "Subject #6, Day 7, Topical 0.05% in PEG (Cohort 3)", "result": 1.44}, {"measurement": "Roughness [SEr] via Visioscan, Individual % Difference", "setting": "Subject #6, Day 7 vs Baseline, Topical 0.05% in PEG (Cohort 3)", "result": "−5.26", "unit": "%"}, {"measurement": "Roughness [SEr] via Visioscan", "setting": "Subject #6, Day 14, Topical 0.05% in PEG (Cohort 3)", "result": 1.24}, {"measurement": "Roughness [SEr] via Visioscan, Individual % Difference", "setting": "Subject #6, Day 14 vs Baseline, Topical 0.05% in PEG (Cohort 3)", "result": "−18.42", "unit": "%"}]}]}
